# Tested on: generation of reactive oxygen species in the murine kidney membrane
# Test: Lucigenin-based assay of reactive oxygen species generation in isolated kidney membrane
# Format: biochemical, rat (Rattus norvegicus)
# Conditions: 37° C. for 10 minutes, luminescence, compound 40, 10, 2.5, 0.625, 0 μM, read-out: EC50 (inhibition of generation of reactive oxygen species)
# Experimental: A kidney was isolated from a rat (Rattus norvegicus) and washed with phosphate buffered saline (PBS). The tissue was soaked in 20 mL of PBS buffer containing a protease inhibitor (Aprotinin 1 μg/mL-USB 11388, Leupeptin 1 μg/mL-USB-18413), finely disrupted using a mixer, and then transferred to a 50 mL conical tube (SPL 50050), followed by centrifugation at 10000 g for 10 minutes (MF-600 plus, Hanil) to sediment the undisrupted tissue. The supernatant was separated and collected in a fresh tube. The tube was placed in ice and subjected to sonication about 4 times each cycle for 30 seconds until the supernatant became clear (Branson Digital Sonifier, Model CE Converter 102C). The supernatant was transferred to a high-speed centrifugation tube (Beckman 331372) and then centrifuged at 100000 g for 1 hour (Optima™ L-90 K Preparative Ultracentrifuge, SW41Ti rotor, Beckman). After the supernatant was discarded, the remaining pellet was washed once with cold PBS and dissolved in 500 μL of cold PBS containing a protease inhibitor to obtain a murine kidney membrane.
# Reactive oxygen species generated in the thus-obtained kidney membrane was analyzed by a lucigenin-based assay.
# Specifically, each of the compounds synthesized in Examples of the present invention (40 μM, 10 μM, 2.5 μM, 0.625 μM, and 0 μM) was placed in a luminescence assay microplate, and the isolated kidney membrane and lucigenin were sequentially added thereto, followed by incubation at 37° C. for 10 minutes. Then, the intensity of luminescence was measured in a luminometer (MicroLumatPlus LB96V Microplate Luminometer, Berthold) to assay the generation of reactive oxygen species in the murine kidney membrane, followed by calculating an EC50 value of the inventive compounds.
row,Compound,EC50 [nM]
1,"Oc1cc(-c2ccc(Br)cc2)nn1-c1ccccn1 [Compound 15, 3-(4-bromophenyl)-1-(pyridin-2-yl)-1H-pyrazol-5-ol]",1200
2,"Oc1cc(-c2ccccc2-c2ccc3c(c2)OCO3)nn1-c1ccccn1 [Compound 59, 3-(2-(benzo[d][1,3]dioxol-5-yl)phenyl)-1-(pyridin-2-yl)-1H-pyrazol-5-ol]",1400
3,"Oc1cc(-c2ccc(-c3ccc(Br)cc3)cc2)nn1-c1ccccn1 [Compound 72, 3-(4′-bromobiphenyl-4-yl)-1-(pyridin-2-yl)-1H-pyrazol-5-ol]",2500
4,"Oc1cc(-c2ccc(-c3ccccc3)cc2)nn1-c1ccccn1 [Compound 54, 3-(biphenyl-4-yl)-1-(pyridin-2-yl)-1H-pyrazol-5-ol]",400
5,"Oc1c(Cc2ccccc2)c(-c2ccccc2)nn1-c1ccccn1 [Compound 79, 4-benzyl-3-phenyl-1-(pyridin-2-yl)-1H-pyrazol-5-ol]",3000
6,"CC(C)[Si](Oc1cc(-c2ccc(I)cc2)nn1-c1ccccn1)(C(C)C)C(C)C [Compound 20, 2-(3-(4-iodophenyl)-5-(triisoropylsilyloxy)-1H-pyrazol-1-yl)pyridine]",1500
7,"Oc1cc(-c2cccc(-c3cccc(-c4ccccc4)c3)c2)nn1-c1ccccn1 [Compound 67, 3-(3′-phenylbiphenyl-3-yl)-1-(pyridin-2-yl)-1H-pyrazol-5-ol]",400
8,"CCCc1c(-c2ccccc2)nn(-c2ccccn2)c1O [Compound 78, 3-phenyl-4-propyl-1-(pyridin-2-yl)-1H-pyrazol-5-ol]",10000
9,"Oc1cc(-c2ccc(-c3ccccc3Oc3ccccc3)cc2)nn1-c1ccccn1 [Compound 74, 3-(2′-phenoxybiphenyl-4-yl)-1-(pyridin-2-yl)-1H-pyrazol-5-ol]",400
10,"Oc1cc(-c2cccc(I)c2)nn1-c1ccccn1 [Compound 17, 3-(3-iodophenyl)-1-(pyridin-2-yl)-1H-pyrazol-5-ol]",700
11,"Oc1cc(-c2ccc(I)cc2)nn1-c1ncccn1 [Compound 19, 3-(4-iodophenyl)-1-(pyrimidin-2-yl)-1H-pyrazol-5-ol]",800
12,"Oc1cc(-c2ccccc2I)nn1-c1ccccn1 [Compound 16, 3-(2-iodophenyl)-1-(pyridin-2-yl)-1H-pyrazol-5-ol]",2500
13,"Oc1cc(-c2ccc(-c3ccccc3)cc2)nn1-c1ncccn1 [Compound 75, 3-(biphenyl-4-yl)-1-(pyrimidin-2-yl)-1H-pyrazol-5-ol]",600
14,"Oc1cc(-c2ccc(I)cc2)nn1-c1ccccn1 [Compound 18, 3-(4-iodophenyl)-1-(pyridin-2-yl)-1H-pyrazol-5-ol]",450
15,Oc1cc(-c2cccc(-c3ccccc3)c2)nn1-c1ccccn1 [Compound 61],400
16,"Oc1cc(-c2cccc(-c3ccccc3Oc3ccccc3)c2)nn1-c1ccccn1 [Compound 65, 3-(2′-phenoxybiphenyl-3-yl)-1-(pyridin-2-yl)-1H-pyrazol-5-ol]",625
17,"CC(=O)Oc1cc(-c2ccc(Br)cc2)nn1-c1ccccn1 [Compound 26, 3-(4-bromophenyl)-1-(pyridin-2-yl)-1H-pyrazol-5-yl acetate]",1300
18,"Oc1cc(-c2ccc(-c3ccc4c(c3)OCO4)cc2)nn1-c1ccccn1 [Compound 55, 3-(4-(benzo[d][1,3]-dioxol-5-yl)phenyl)-1-(pyridin-2-yl)-1H-pyrazol-5-ol]",500
19,"CC(C)(C)OC(=O)Oc1cc(-c2ccc(-c3ccccc3)cc2)nn1-c1ncccn1 [Compound 48, 3-(biphenyl-4-yl)-1-(pyrimidin-2-yl)-1H-pyrazol-5-yl tert-butyl carbonate]",1200
20,"CC(C)[Si](Oc1cc(-c2ccc(-c3ccc(Br)cc3)cc2)nn1-c1ccccn1)(C(C)C)C(C)C [Compound 51, 2-(3-(4′-bromobiphenyl-4-yl)-5-(triisopropylsilyloxy)-1H-pyrazol-1-yl)pyridine]",400
21,"c1ccc(B(Oc2cc(-c3ccc(-c4ccccc4)cc3)nn2-c2ccccn2)c2ccccc2)cc1 [Compound 52, 2-(3-(biphenyl-4-yl)-5-(diphenylboryloxy)-1H-pyrazol-1-yl)pyridine]",500
